Test results taken from patent US20220388919A1, “UREA-BASED BLEND COMPOSITION AND METHOD FOR THE MANUFACTURE THEREOF” (Yara International ASA, priority 2019, published 2022).

Experiment: nBTPT recovered after storage in bags (HPLC, CEN 15688-2007)
Format: physicochemical
Settings: bagged conditions without the presence of a head space (exclusion of moisture and atmospheric gasses)
Protocol: For lab scale experiments, 1.2 kg of solid UAS fertilizer material was added to a lab scale drum. In a next step, the nBTPT/stabilizer material was slowly added. A residence time of 10 minutes was applied, and the rotating speed of the drum was consequently the same in each experiment. In case a moisture-repellent coating was added, a nebulizer was used and depending on the order of addition, the moisture-repellent coating was added before or after addition of the nBTPT material. Before use, the moisture-repellent coating was preheated to 80° C. Larger scale experiments with amounts up to 40 kg of fertilizer material were performed in a concrete mixer.
Optionally, a zinc sulphate, anhydrous zinc sulphate or monohydrate zinc sulphate, was coated on the particles (0.46 weight %). […] Product samples were taken at different times from a bag and the amount of nBTPT still present was measured by HPLC according to the procedure CEN 15688-2007, the results are presented in FIG. 1. […]
Urea particles containing 46 weight % of nitrogen was coated with 0.046 weight % of nBTPT, as urease inhibitor, and an inorganic stabilizer, magnesium oxide (0.023 weight %). […] Product samples were taken at different times and the amount of nBTPT still present was measured by HPLC according to the procedure CEN 15688-2007, the results are presented in FIG. 5. […]

For `CCCCNP(N)(N)=S` [nBTPT, N-(n-butyl) thiophosphoric triamide], which “stability of the urease inhibitor” value is on record?
Its value is “further increased”.
